Measurements taken from patent publication US20050234113A1, “Antioxidant and radical scavenging activity of synthetic analogs of desferrithiocin” (University of Florida Research Foundation, Inc., priority 2002, published 2005).

Tests used:
[1] = Prevention of iron-mediated oxidation of ascorbate (ascorbate-mediated reduction of Fe(III)); details: ascorbate 100 μM, FeCl3 30 μM, pH 7.4, ligand/Fe ratios 0-3, 40 min
Description: (§1) The iron chelators were tested for their ability to diminish the iron-mediated oxidation of ascorbate by the method of Dean and Nicholson (Free Radical Res. 20, 83-101 (1994)). Briefly, a solution of freshly prepared ascorbate (100 μM) in sodium phosphate buffer (5 mM, pH 7.4) was incubated in the presence of FeCl3 (30 μM) and chelator (ligand/Fe ratios varied from 0-3) for 40 min. The A265 was read at 10 and 40 min; the ΔA265 in the presence of ligand was compared to that in its absence.
The role of chelators in either inhibition or promotion of the Fenton reaction is related to their capacity to prevent Fe(III) from being reduced to Fe(II). Fe(II) is required for the reduction of H2O2 to HO. and HO^−. The assay involves spectrophotometrically monitoring the disappearance of ascorbate at pH 7.4 in the presence of FeCl3 and chelator at several ligand/Fe ratios. Under these conditions, ascorbate is oxidized to an L-ascorbyl radical anion. This anion then disproportionates to dehydroascorbic acid and ascorbate.
as §1, with “chelators nitrilotriacetic acid (NTA), 1,2-dimethyl-3-hydroxypyridin-4-one (L1), desferrioxamine B (DFO), (S)-4′-(HO)-DADMDFT, and (S,S)-1,11-Bis[5-(4-carboxyl-4,5-dihydro-1,3-thiazol-2-yl)-2,4-dihydroxyphenyl]-4,8-dioxaundecane (BDU)” for “chelators”, “Nicholson, Free” for “Nicholson (Free”, “20:” for “20,”, “(1994).” for “(1994)).”
The measurement examines the disappearance of ascorbate. It is known that DFO, a hydroxamate chelator that forms a 1:1 complex with Fe(III) at a formation constant of approximately 10^31 M^−1, prevents ascorbate-mediated reduction of Fe(III); it serves as a positive control in the present study. Both NTA and L1 promote ascorbate-mediated reduction of Fe(III) and serve as negative controls.

[2] = Quenching of the ABTS radical cation; details: method of Example 6
Description: The iron chelators were tested for their ability to quench the radical cation formed from 2,2′-azinobis(3-ethylbenzothiazoline-6-sulfonic acid) (ABTS) by the method of Re et al. in Free Radic. Biol. Med. 26, 1231-1237 (1999). Briefly, a stock solution of ABTS radical cation was generated by mixing ABTS (10 mM, 2.10 mL) with K2S2O8 (8.17 mM, 0.90 mL) in H2O and […] deep blue-green ABTS radical cation was diluted in sufficient sodium phosphate (10 mM, pH 7.4) to give an A734 of about 0.900. Test compounds were added to a final concentration ranging from 1.25 to 15 μM, and the decrease in A734 was read after 1, 2, 4 and 6 min. The reaction was largely complete by 1 min, but the data presented are based on a 6-min reaction time.
In this assay, a fairly stable radical cation, ABTS^+, was examined, and Trolox, an analog of vitamin E, was used as a positive control. Briefly, the procedure involved generating the blue-green chromophore by the reaction of ABTS with K2S2O8. The radical has absorption maxima at λ=415, 645, 734, and 815 nm. The change in absorbance at 734 nm was noted 6 min after addition of the chelator of interest at various concentrations, and the slope of the ΔA734 vs. ligand concentration line was calculated.
The iron chelators were tested for their ability to quench the radical cation formed from 2,2′-azinobis(3-ethylbenzothiazoline-6-sulfonic acid) (ABTS) by a published method (Re, R., et al., Free Radical Biol. Med. 26:1231-1237 (1999). Briefly, a stock solution of ABTS radical cation was generated by mixing ABTS (10 mM, 2.10 mL) with K2S2O8 (8.17 mM, 0.90 mL) in H2O and allowing the solution to sit in the dark at room temperature for 18 hours. This stock solution of deep blue-green ABTS radical cation was diluted in sufficient sodium phosphate (10 mM, pH 7.4) to give an A734 of about 0.900. Test compounds were added to a final concentration ranging from 1.25 to 15 μM, and the decrease in A734 was read after 1, 2, 4 and 6 min. The reaction was largely complete by 1 min, but the data presented are based on a 6-min. reaction time.
This radical cation decolorization assay utilizes the pre-formed radical monocation of 2,2′-azinobis(3-ethylbenzothiazoline-6-sulfonic acid) (ABTS) and has been used to evaluate the antioxidant capacity of a large number of compounds and mixtures. Briefly, the change in absorbance of the blue-green chromophore was recorded after the addition of the chelator of interest at each of the different concentrations, and the slope of the ΔA734 vs. ligand concentration line was calculated. The positive control for this reaction was Trolox, an analogue of vitamin E. The decrease in A734 as a function of ligand concentration is the comparitor among the five compounds evaluated. Trolox, L1, DFO, (S)-4′-(HO)-DADMDFT and BDU (Table 3). All four of the iron chelators performed better than Trolox; DFO≈BDU>(S)-4′-(HO)-DADMDFT>L1>Trolox. Thus, all of these ligands could be expected to serve as excellent radical scavengers.

[3] = Quenching of the ABTS radical cation; details: Table 5; 6-min reaction, initial OD 1.000

Structure (SMILES): COc1ccc(C2=N[C@@H](C(=O)O)CS2)c(O)c1 [4′-(CH3O)-DADMDFT, 4′-methoxydesazadesmethyldesferrithiocin]
- effect on ascorbate-mediated reduction of Fe(III) (in words) [1]: slowed Fe(III) reduction considerably
- radical trapping compared with Trolox (in words) [2]: as effective as Trolox
- Slope × 10^3 OD units/μM (ABTS radical cation quenching) [3]: −33 × 10^3 OD units/μM
